Activity calls are given as the source filed them. The rule behind the calls is not given here.
What was measured:
[1] = molecular target: T1, Lutropin-choriogonadotropic hormone receptor (Homo sapiens, UniProt P22888); experiment: Antagonist activity at human luteinizing hormone receptor assessed as reduction in agonist-induced cAMP production preincubated for 20 mins followed by agonist solution addition after 60 mins by cell based TR-FRET assay; format: functional
[2] = Lipophilicity, logD of the compound at pH 7.5 by reversed-phase HPLC; format: physicochemical; conditions: buffer
[3] = Clearance in human liver microsomes at 1 uM measured after 2 to 60 mins in presence of glucose-6-phosphate by LC-MS/MS analysis; format: ADME, Microsome
[4] = Maximum oral bioavailability in human liver microsomes based well stirred liver model at 1 uM measured after 2 to 60 mins in presence of glucose-6-phosphate by LC-MS/MS analysis; format: ADME, Microsome; conditions: read-out: Fmax
[5] = molecular target: T2, Follicle-stimulating hormone receptor (Homo sapiens, UniProt P23945); experiment: Antagonist activity at human follicle stimulating hormone receptor assessed as reduction in agonist-induced cAMP production preincubated for 20 mins followed by agonist solution addition and measured after 120 mins by cell based TR-FRET assay; format: functional
T2 sequence (P23945 whole entry): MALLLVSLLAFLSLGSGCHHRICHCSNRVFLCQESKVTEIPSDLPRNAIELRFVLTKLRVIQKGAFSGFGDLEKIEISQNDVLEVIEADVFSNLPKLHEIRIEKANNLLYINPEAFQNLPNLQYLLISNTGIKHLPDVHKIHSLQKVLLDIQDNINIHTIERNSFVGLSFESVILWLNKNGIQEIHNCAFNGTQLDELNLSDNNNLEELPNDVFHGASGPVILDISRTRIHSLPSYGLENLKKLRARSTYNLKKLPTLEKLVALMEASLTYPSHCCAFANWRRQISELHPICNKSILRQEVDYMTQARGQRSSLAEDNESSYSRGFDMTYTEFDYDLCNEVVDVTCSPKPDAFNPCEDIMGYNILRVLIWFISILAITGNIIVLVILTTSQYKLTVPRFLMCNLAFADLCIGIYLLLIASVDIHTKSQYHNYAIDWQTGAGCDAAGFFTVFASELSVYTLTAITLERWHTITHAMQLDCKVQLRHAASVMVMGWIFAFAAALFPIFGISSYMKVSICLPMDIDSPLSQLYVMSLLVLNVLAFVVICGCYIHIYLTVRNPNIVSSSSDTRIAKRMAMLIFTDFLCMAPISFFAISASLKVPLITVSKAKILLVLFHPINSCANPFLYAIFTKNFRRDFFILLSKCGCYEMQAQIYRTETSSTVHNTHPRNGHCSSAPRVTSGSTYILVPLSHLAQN

[6] = molecular target: Lutropin-choriogonadotropic hormone receptor (Mus musculus, UniProt P30730); experiment: Antagonist activity at luteinizing hormone receptor in mouse MLTC-1 cells assessed as reduction in agonist-induced cAMP production preincubated for 30 mins followed by agonist solution addition and measured after 30 mins by cell based TR-FRET assay; format: functional
Sequence of Lutropin-choriogonadotropic hormone receptor (Mus musculus, UniProt P30730) (P30730 whole entry): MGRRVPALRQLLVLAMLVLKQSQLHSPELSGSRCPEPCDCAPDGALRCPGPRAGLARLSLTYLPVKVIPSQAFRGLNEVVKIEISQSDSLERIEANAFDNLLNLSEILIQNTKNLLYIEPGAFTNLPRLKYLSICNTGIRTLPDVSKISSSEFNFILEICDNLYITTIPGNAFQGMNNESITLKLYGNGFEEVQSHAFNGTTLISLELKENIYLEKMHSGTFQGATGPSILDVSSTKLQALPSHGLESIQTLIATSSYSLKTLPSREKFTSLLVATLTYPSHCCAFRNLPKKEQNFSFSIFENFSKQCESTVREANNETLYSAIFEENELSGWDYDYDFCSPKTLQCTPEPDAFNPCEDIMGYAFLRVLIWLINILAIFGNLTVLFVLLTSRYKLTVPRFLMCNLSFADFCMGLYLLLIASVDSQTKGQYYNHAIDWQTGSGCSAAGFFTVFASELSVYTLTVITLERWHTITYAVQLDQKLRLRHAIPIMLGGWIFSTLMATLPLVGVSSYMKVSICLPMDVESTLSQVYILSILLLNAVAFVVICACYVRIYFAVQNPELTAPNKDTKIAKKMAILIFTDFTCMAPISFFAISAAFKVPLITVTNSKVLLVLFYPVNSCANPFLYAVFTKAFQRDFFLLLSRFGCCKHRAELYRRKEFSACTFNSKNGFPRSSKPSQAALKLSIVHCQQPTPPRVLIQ

[7] = molecular target: Lutropin-choriogonadotropic hormone receptor (Rattus norvegicus, UniProt P16235); experiment: Antagonist activity at rat luteinizing hormone receptor expressed in rat ovary granulosa GLHR15 cell suspension assessed as reduction in agonist-induced cAMP production preincubated for 30 mins followed by agonist solution addition after 30 mins by cell based TR-FRET assay; format: functional
Sequence of Lutropin-choriogonadotropic hormone receptor (Rattus norvegicus, UniProt P16235) (P16235 whole entry): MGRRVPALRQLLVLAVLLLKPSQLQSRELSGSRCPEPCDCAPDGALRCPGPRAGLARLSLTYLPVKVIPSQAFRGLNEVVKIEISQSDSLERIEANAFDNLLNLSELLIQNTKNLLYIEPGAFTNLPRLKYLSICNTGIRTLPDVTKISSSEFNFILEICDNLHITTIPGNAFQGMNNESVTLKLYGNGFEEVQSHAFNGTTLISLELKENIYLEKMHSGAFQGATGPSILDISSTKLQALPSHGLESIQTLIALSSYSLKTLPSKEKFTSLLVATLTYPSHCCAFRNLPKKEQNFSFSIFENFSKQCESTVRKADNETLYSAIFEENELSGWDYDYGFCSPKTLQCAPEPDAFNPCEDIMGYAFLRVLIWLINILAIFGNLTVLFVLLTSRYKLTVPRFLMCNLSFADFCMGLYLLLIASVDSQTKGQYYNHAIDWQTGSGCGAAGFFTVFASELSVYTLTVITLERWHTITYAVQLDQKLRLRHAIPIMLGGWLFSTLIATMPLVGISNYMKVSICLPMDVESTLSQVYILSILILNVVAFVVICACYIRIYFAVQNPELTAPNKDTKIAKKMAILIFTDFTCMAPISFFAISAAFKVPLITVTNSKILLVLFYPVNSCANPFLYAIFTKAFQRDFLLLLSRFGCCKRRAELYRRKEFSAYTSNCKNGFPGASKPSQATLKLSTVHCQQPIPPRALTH

[8] = molecular target: Thyrotropin receptor (Homo sapiens, UniProt P16473); experiment: Antagonist activity at human thyroid stimulating hormone receptor expressed in rat HTC133 cells assessed as reduction in agonist-induced cAMP production preincubated for 20 mins followed by agonist solution addition and measured after 60 mins by cell based TR-FRET assay; format: functional
Sequence of Thyrotropin receptor (P16473 whole entry): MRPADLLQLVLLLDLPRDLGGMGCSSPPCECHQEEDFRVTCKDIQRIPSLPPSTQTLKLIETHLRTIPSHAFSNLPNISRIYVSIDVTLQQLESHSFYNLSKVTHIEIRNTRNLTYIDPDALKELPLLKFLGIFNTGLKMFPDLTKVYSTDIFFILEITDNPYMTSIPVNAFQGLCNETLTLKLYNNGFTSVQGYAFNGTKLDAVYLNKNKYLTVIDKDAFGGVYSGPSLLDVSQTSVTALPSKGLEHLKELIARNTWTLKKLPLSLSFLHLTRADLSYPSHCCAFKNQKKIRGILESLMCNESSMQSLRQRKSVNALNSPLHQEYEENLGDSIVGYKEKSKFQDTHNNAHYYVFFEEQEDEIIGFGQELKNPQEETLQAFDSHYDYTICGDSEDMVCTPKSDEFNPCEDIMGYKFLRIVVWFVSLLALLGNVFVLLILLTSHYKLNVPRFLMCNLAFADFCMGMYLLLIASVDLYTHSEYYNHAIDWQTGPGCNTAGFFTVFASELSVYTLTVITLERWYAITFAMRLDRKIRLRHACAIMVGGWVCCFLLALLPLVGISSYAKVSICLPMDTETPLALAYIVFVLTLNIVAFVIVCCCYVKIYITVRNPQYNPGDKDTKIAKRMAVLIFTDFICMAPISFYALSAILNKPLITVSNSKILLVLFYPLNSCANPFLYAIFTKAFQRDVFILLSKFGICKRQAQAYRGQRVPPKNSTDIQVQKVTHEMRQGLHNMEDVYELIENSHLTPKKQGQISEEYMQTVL

[9] = molecular target: T1, Lutropin-choriogonadotropic hormone receptor; experiment: Agonist activity at human luteinizing hormone receptor incubated for 60 mins by cell based TR-FRET assay; conditions: human, 1 h
[10] = molecular target: Relaxin receptor 1 (Homo sapiens) (UniProt Q9HBX9); experiment: Antagonist activity at human RXFP1 assessed as reduction in agonist-induced cAMP production preincubated for 20 mins followed by mutRelaxin agonist addition measured after 60 mins by cell based TR-FRET assay; format: functional
Sequence of Relaxin receptor 1 (Homo sapiens) (Q9HBX9 whole entry): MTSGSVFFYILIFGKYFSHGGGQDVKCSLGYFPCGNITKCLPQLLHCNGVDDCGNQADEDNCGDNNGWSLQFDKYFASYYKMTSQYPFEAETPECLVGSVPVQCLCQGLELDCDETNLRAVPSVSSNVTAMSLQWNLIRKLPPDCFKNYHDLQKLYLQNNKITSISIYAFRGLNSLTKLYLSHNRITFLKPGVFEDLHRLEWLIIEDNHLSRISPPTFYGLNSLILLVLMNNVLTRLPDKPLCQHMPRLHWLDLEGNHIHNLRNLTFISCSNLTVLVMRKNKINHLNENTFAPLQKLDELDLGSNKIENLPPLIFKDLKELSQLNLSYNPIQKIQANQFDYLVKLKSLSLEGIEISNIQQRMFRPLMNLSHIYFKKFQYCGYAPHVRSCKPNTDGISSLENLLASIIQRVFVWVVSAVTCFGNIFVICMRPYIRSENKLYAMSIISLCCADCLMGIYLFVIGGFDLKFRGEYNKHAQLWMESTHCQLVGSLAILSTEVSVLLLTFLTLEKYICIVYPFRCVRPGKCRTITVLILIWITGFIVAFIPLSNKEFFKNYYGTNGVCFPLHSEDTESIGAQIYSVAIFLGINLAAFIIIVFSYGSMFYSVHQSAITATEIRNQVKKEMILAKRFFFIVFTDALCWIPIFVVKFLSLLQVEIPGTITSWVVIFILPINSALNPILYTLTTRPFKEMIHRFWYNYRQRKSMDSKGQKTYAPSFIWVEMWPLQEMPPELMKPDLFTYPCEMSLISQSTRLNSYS

T1 sequence (P22888 whole entry): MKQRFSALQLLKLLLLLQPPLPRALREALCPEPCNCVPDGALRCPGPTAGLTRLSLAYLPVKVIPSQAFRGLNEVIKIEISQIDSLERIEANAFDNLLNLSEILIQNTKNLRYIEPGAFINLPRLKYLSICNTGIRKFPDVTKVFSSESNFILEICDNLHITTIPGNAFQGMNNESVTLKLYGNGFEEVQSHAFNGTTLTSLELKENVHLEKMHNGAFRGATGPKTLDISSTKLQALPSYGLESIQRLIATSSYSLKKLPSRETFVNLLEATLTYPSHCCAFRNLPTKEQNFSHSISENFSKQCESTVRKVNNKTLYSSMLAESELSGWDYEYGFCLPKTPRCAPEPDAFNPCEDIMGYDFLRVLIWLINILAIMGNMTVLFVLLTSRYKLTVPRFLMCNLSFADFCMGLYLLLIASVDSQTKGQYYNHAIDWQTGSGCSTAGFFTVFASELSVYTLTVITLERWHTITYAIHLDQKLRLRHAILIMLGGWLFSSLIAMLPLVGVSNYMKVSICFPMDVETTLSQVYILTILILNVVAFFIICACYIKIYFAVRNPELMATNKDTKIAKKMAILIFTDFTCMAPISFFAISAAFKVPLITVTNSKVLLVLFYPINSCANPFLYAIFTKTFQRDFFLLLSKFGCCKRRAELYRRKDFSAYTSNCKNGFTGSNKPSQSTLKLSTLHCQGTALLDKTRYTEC

Compound	IC50 [1]	chromatographic logD [2]	CLhep predicted at 1 µM [3]	Fh at 1 µM [4]	other results
O=C(Nc1cc(Cl)cc(Cl)c1)N1CCc2sccc2C1c1ccncc1 (racemic)	5180 nM	4.2			
O=C(Nc1cccc(Oc2ccccc2)c1)N1CCc2sccc2C1c1ccc(Cl)cc1 (racemic)	332 nM	5.4			
COc1ccc(C2c3ccsc3CCN2C(=O)Nc2ccc(Cl)cc2)cc1 (racemic)	107 nM	3.9	18.3 mL/min/kg	18%	
O=C(Nc1cc(Cl)cc(Cl)c1)N1CCc2sccc2C1c1ccc(Cl)cc1 (racemic)	486 nM		11.7 mL/min/kg	48%	
O=C(Nc1ccc(F)c(Cl)c1)N1CCc2sccc2C1c1ccc(Cl)cc1 (racemic)	174 nM	5.1			
NC(=O)c1ccc(C2c3ccsc3CCN2C(=O)Nc2cc(Cl)cc(Cl)c2)cc1 (racemic)	> 16500 nM	3.7			
O=C(Nc1ccc(Oc2ccc(F)cc2)cc1)N1CCc2ncccc2[C@@H]1c1ccc(F)cc1	102 nM	3.9	5 mL/min/kg	75%	
COc1ccc(C2c3ccsc3CCN2C(=O)Cc2cc(C)cc(C)c2)cc1 (racemic)	> 16000 nM	4.8			
O=C(Nc1ccc(Oc2ccc(F)cc2)cc1)N1CCc2sccc2C1c1ccc(Cl)cc1 (racemic)	127 nM	5.3	10 mL/min/kg	56%	
COc1ccc(C2c3ccsc3CCN2C(=O)Nc2ccc(F)c(C(N)=O)c2)cc1 (racemic)	1680 nM	2.8			
O=C(Nc1cc(Cl)cc(Cl)c1)N1CCc2sccc2C1c1cccc(F)c1 (racemic)	3130 nM	5.1			
COc1ccc(C2c3ccsc3CCN2C(=O)Nc2ccc(F)c(N3CCS(=O)(=O)CC3)c2)cc1 (racemic)	> 16500 nM	3.1			
O=C(Nc1cc(Cl)cc(Cl)c1)N1CCc2sccc2C1c1cccnc1 (racemic)	7470 nM	4.2	20 mL/min/kg	11%	
COc1ccc([C@@H]2c3ccsc3CCN2C(=O)Nc2cc(Cl)cc(Cl)c2)cc1	6790 nM				IC50 [5]: > 16500 nM; IC50 [6]: > 30000 nM; IC50 [7]: 4890 nM; IC50 [8]: > 30000 nM
O=C(Nc1cc(Cl)cc(Cl)c1)N1CCc2sccc2C1c1ccc(=O)[nH]c1 (racemic)	2310 nM	3.7			
COc1ccc([C@H]2c3ccsc3CCN2C(=O)Nc2cc(Cl)cc(Cl)c2)cc1	403 nM				IC50 [5]: > 16500 nM; IC50 [6]: > 30000 nM; IC50 [7]: 412 nM; IC50 [8]: > 30000 nM
COc1cc(NC(=O)N2CCc3sccc3[C@@H]2c2ccccc2)cc(OC)c1	193 nM				

Compound	IC50 [1]	chromatographic logD [2]	CLhep predicted at 1 µM [3]	Fh at 1 µM [4]	other results
O=C(Nc1ccc(Oc2ccc(F)cc2)nc1)N1CCc2ncccc2[C@@H]1c1ccc(F)cc1	312 nM	3.2	3.33 mL/min/kg	83%	
COc1ccc(C2c3ccsc3CCN2C(=O)Nc2cccc(Cl)c2)cc1 (racemic)	275 nM	4.2	20 mL/min/kg	7%	
O=C(Nc1cc(Cl)cc(Cl)c1)N1CCc2sccc2C1c1ccc(C(F)(F)F)cc1 (racemic)	3650 nM		11.7 mL/min/kg	51%	
COc1ccc(C2c3ccsc3CCN2C(=O)Nc2cc(Cl)cc(Cl)c2)cc1 (racemic)	378 nM	5	21.7 mL/min/kg	3%	Activity [9]: Not Active; IC50 [5]: > 16500 nM; IC50 [6]: > 30000 nM; IC50 [7]: 212 nM; IC50 [8]: > 30000 nM; inhibition [10]: inactive
COc1ccc(C2c3ccsc3CCN2C(=O)Nc2cc(OC)cc(OC)c2)cc1 (racemic)	207 nM	3.6	21.7 mL/min/kg	3%	
Cc1ccc(C2c3ccsc3CCN2C(=O)Nc2cc(Cl)cc(Cl)c2)cc1 (racemic)	2610 nM	5.5	20 mL/min/kg	8%	
O=C(Nc1ccc(F)c(OC(F)(F)F)c1)N1CCc2sccc2C1c1ccc(Cl)cc1 (racemic)	81 nM	5.2	13.3 mL/min/kg	42%	
O=C(Nc1cc(Cl)cc(Cl)c1)N1CCc2sccc2C1c1ccc(F)c(F)c1 (racemic)	1850 nM		13.3 mL/min/kg	40%	
O=C(Nc1cc(Cl)cc(Cl)c1)N1CCc2sccc2C1c1ccccc1 (racemic)	1620 nM				
O=C(Nc1cc(Cl)cc(Cl)c1)N1CCc2sccc2C1c1ccccn1 (racemic)	> 16500 nM				
CC(C)c1ccc(C2c3ccsc3CCN2C(=O)Nc2cc(Cl)cc(Cl)c2)cc1 (racemic)	> 16500 nM				
O=C(Nc1cc(Cl)cc(Cl)c1)N1CCc2sccc2C1c1ccccc1F (racemic)	3240 nM	4.8	18.3 mL/min/kg	17%	
O=C(Nc1ccccc1)N1CCc2sccc2C1c1ccc(Cl)cc1 (racemic)	95 nM	4	16.7 mL/min/kg	26%	
COc1ccc(C2c3ccsc3CCN2C(=O)Nc2cc(C)cc(C)c2)cc1 (racemic)	580 nM	4.1			
COc1ccc(C2c3ccsc3CCN2C(=S)Nc2cc(OC)cc(OC)c2)cc1 (racemic)	3320 nM	3.7			
Cc1ccccc1C1c2ccsc2CCN1C(=O)Nc1cc(Cl)cc(Cl)c1 (racemic)	> 16500 nM				

— ChEMBL document CHEMBL4321836, “Discovery of BAY-298 and BAY-899: Tetrahydro-1,6-naphthyridine-Based, Potent, and Selective Antagonists of the Luteinizing Hormone Receptor Which Reduce Sex Hormone Levels in Vivo” (J Med Chem, 2019)
